From ChEMBL document CHEMBL1201862, “PubChem BioAssay data set” (2004)
The source made the active and inactive calls. Where a SMILES comes first, the peptide text is derived from it. The star is where a group is joined. CH2Cl = ClC*

Tests used:
[1] = molecular target: T1, Probable nicotinate-nucleotide adenylyltransferase (Staphylococcus aureus (strain N315), UniProt P65502); type: functional, Staphylococcus aureus subsp. aureus N315;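 for IC50 Mean: confirmatory dose-response retesting of NadD inhibitor hits first found in an ultra-high-throughput screen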
[2] = molecular target: T1, Probable nicotinate-nucleotide adenylyltransferase; type: functional, Staphylococcus aureus subsp. aureus N315; conditions: read-out: IC50_Mean
[3] = molecular target: T2, Corticotropin-releasing factor receptor 2/Corticotropin-releasing factor-binding protein (Homo sapiens, UniProt P24387+Q13324); experiment: Dose Response confirmation of uHTS hits for small molecule antagonists of the CRF-binding protein and CRF-R2 receptor complex.; type: functional; conditions: read-out: IC50_Mean
T2 sequence (Q13324 whole entry): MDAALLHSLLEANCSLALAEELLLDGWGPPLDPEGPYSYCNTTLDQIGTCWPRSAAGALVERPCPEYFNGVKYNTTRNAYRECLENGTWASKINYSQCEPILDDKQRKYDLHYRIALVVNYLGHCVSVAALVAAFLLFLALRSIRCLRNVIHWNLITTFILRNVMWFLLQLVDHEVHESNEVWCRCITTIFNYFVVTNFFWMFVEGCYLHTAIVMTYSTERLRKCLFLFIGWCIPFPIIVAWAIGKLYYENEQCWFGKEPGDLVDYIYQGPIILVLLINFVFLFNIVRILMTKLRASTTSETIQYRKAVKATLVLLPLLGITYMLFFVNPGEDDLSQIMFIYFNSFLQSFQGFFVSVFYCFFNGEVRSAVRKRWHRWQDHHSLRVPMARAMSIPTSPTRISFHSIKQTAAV
T2 sequence (P24387 whole entry): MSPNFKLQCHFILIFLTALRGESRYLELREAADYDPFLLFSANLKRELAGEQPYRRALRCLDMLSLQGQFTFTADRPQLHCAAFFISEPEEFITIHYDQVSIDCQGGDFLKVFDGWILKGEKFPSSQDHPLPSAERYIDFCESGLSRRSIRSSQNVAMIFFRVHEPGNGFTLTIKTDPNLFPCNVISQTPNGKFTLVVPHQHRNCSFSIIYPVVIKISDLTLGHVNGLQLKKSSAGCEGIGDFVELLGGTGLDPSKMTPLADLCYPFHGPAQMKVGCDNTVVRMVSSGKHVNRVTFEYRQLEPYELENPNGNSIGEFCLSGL

[4] = molecular target: T2, Corticotropin-releasing factor receptor 2/Corticotropin-releasing factor-binding protein; experiment: activators of CRF receptor 2 with binding protein – uHTS hits, confirmation (AID 602473); type: functional; conditions: read-out: EC50_Mean
[5] = blockers of CRF-binding protein–CRF-R2 complex – cell-based, uHTS hits, 384-well, dose response (AID 651639); type: functional, Homo sapiens; conditions: read-out: IC50_Mean
[6] = molecular target: T3, Interleukin-8 (Homo sapiens, UniProt P10145); experiment: Dose Response confirmation of uHTS small molecule hits for cystic fibrosis induced NFkb Inhibitors in a TNFa-induced IL8 counterscreen.; type: functional; conditions: read-out: IC50_Mean
T3 sequence (P10145 whole entry): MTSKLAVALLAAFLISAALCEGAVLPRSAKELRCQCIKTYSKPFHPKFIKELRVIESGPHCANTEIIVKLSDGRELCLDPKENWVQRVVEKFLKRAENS

[7] = molecular target: T3, Interleukin-8; experiment: Dose Response confirmation of uHTS small molecule hits for cystic fibrosis induced NFkb Inhibitors in a PAF-induced IL8 counterscreen.; type: functional; conditions: read-out: IC50_Mean
[8] = inhibition of ARNT PAS-B/TACC3 complex formation – biochemical, AlphaScreen, cherry-picked samples, confirmation (AID 651703); type: functional, Homo sapiens;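 note: His-tagged ARNT PAS-B domain paired with GST-TACC3 E629A dimer coactivator fragment; potency of inhibitors that break up the complex and lower AlphaScreen signal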
[9] = molecular target: T4, Methionyl-tRNA synthetase, putative (Trypanosoma brucei brucei, UniProt Q38C91); type: functional, Trypanosoma brucei brucei strain 927/4 GUTat10.1
T4 sequence (Q38C91 whole entry): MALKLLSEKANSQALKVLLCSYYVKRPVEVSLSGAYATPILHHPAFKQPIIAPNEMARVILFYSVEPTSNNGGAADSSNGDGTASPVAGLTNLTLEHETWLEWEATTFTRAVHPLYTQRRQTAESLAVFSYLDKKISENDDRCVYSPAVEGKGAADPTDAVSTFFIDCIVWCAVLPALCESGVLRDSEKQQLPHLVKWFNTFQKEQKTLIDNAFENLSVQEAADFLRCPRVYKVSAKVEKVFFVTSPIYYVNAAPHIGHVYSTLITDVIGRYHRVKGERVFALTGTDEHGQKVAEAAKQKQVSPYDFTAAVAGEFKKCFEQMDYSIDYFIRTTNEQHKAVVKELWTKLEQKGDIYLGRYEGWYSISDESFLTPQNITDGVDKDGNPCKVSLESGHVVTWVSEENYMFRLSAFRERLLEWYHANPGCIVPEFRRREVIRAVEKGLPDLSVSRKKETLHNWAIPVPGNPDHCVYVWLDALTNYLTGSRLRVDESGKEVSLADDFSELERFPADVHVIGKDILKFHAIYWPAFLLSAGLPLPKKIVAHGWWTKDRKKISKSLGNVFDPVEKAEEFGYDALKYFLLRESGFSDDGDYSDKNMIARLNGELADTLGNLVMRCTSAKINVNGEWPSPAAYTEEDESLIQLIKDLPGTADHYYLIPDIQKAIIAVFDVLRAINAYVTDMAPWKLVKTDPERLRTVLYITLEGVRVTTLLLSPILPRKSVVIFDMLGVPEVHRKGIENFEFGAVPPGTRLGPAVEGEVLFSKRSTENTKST

[10] = Counterscreen for inhibitors of Trypanosoma brucei methionyl tRNA synthetase (MetRS): Luminescence-based cell-based high throughput dose response assay to identify compounds that are cytotoxic to Jurkat human T lymphocyte cells.; type: functional
[11] = molecular target: T4, Methionyl-tRNA synthetase, putative; type: functional, Trypanosoma brucei brucei strain 927/4 GUTat10.1; remark: listed apart in the source
[12] = molecular target: SWI/SNF-related matrix-associated actin-dependent regulator of chromatin subfamily A member 2 (Homo sapiens, UniProt P51531); experiment: Luminescence-based cell-based high throughput dose response assay to identify activators of the function of SWI/SNF related, matrix associated, actin dependent regulator of chromatin, subfamily a, member 2 (SMARCA2, BRM).; type: functional
[13] = Counterscreen for activators of the function of SWI/SNF related, matrix associated, actin dependent regulator of chromatin, subfamily a, member 2 (SMARCA2, BRM): Luminescence-based cell-based high throughput dose response assay to identify non-selective compounds using the VP16 reporter assay.; type: functional
[14] = molecular target: T5, Carboxy-terminal domain RNA polymerase II polypeptide A small phosphatase 1 (Homo sapiens, UniProt Q9GZU7); experiment: CTDSP1 inhibitors, concentration-response, biochemical, absorbance readout, ultra-high-throughput screen actives (AID 540297); type: functional
T5 sequence (Q9GZU7 whole entry): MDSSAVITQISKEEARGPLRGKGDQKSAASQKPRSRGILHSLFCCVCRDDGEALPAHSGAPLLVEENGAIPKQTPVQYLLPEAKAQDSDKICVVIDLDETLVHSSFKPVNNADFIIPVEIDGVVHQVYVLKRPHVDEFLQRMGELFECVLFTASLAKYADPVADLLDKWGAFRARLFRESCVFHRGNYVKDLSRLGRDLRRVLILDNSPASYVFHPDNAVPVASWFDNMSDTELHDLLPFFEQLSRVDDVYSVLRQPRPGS

[15] = molecular target: T6, Small ubiquitin-related modifier 1 (Homo sapiens, UniProt P63165); experiment: SUMO1 protein interaction blockers, potency – biochemical, fluorescence polarization, uHTS hits, dose response (AID 624382); type: functional; conditions: read-out: IC50_Mean
[16] = molecular target: T6, Small ubiquitin-related modifier 1; experiment: SUMO1 protein-protein binding blockers, potency – biochemical, FRET, dose response (AID 624383); type: functional; conditions: read-out: IC50_Mean
[17] = activation of miR-122 Renilla sensor silencing – cell-based, Huh7 psiCHECK-miR122, Renilla luciferase, cherry-picked, dose response (AID 651956); type: functional;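 note: huh7 hepatoma cells stably carrying a psiCHECK-2 miR-122 sensor plasmid; renilla luciferase signal reporting endogenous miR-122 activity after 48 h compound exposure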
[18] = molecular target: T7, Protein skinhead-1 (Caenorhabditis elegans, UniProt P34707); type: functional
T7 sequence (P34707 whole entry): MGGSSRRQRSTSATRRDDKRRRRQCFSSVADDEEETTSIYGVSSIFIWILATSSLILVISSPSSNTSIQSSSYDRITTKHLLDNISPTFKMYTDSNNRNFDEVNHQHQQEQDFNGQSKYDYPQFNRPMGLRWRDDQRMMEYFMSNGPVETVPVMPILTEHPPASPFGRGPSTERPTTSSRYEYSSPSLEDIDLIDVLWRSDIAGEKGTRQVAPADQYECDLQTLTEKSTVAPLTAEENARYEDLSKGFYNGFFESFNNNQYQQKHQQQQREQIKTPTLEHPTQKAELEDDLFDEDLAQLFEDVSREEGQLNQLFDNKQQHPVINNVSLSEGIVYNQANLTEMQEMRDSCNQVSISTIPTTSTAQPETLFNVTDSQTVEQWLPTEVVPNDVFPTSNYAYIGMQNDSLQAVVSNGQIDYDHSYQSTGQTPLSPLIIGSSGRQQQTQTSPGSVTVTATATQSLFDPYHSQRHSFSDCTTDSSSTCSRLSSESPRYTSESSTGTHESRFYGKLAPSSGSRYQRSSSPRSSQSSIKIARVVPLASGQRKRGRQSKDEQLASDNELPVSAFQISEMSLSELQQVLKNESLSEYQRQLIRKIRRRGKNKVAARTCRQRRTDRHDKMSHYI

[19] = molecular target: Matrix metalloproteinase-14 (Homo sapiens, UniProt P50281); experiment: Dose Response confirmation of uHTS hits for a small molecule inhibitors of MT1-MMP activation in a fluorescence assay set 1.; type: functional
[20] = molecular target: T8, Heat shock factor protein 1 (Mus musculus, UniProt P38532); experiment: decrease of HSF1-responsive luciferase luminescence – cell-based, NIH3T3, dose retest, confirmation (AID 2382); type: functional;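 note: NIH3T3 fibroblasts with HSF1-driven luciferase reporter stressed by proteasome inhibitor MG132; luminescence from HSF1-driven luciferase expression after 8 hours of MG132 stress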
T8 sequence (P38532 whole entry): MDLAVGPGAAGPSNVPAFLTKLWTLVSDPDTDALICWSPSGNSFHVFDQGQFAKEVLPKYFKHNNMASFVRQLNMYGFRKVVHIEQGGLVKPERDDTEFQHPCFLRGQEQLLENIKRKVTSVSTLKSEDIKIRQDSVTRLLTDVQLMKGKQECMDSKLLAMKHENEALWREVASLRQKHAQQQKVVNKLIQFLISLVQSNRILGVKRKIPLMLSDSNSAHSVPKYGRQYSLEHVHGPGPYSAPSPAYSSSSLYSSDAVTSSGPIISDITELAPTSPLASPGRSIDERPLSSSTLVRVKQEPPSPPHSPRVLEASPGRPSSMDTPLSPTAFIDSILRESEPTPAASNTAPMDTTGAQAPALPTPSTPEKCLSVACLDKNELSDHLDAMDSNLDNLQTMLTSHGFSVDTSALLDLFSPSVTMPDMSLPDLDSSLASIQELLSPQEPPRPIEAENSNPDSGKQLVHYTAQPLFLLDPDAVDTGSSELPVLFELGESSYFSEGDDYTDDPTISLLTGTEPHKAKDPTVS

[21] = molecular target: T9, Low molecular weight phosphotyrosine protein phosphatase (Homo sapiens, UniProt P24666); type: functional; conditions: read-out: IC50_Mean;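 note: Dose-response confirmation assay measuring inhibition of LMPTP enzyme activity by fluorescence intensity read-out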
T9 sequence (P24666 whole entry): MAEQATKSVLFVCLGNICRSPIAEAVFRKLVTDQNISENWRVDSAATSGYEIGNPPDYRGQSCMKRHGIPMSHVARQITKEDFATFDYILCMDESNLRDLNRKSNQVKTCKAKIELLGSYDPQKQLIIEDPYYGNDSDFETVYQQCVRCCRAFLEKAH

T1 sequence (P65502 whole entry): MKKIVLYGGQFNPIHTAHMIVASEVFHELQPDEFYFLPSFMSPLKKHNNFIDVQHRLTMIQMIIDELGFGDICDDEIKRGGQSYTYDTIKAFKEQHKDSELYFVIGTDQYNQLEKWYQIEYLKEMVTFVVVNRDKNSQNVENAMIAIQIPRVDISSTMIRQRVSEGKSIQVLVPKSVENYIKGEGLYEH
T6 sequence (P63165 whole entry): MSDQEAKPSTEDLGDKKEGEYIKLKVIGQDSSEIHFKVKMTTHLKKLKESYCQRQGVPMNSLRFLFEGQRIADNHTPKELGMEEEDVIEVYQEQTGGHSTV
Sequence of SWI/SNF-related matrix-associated actin-dependent regulator of chromatin subfamily A member 2 (P51531 whole entry): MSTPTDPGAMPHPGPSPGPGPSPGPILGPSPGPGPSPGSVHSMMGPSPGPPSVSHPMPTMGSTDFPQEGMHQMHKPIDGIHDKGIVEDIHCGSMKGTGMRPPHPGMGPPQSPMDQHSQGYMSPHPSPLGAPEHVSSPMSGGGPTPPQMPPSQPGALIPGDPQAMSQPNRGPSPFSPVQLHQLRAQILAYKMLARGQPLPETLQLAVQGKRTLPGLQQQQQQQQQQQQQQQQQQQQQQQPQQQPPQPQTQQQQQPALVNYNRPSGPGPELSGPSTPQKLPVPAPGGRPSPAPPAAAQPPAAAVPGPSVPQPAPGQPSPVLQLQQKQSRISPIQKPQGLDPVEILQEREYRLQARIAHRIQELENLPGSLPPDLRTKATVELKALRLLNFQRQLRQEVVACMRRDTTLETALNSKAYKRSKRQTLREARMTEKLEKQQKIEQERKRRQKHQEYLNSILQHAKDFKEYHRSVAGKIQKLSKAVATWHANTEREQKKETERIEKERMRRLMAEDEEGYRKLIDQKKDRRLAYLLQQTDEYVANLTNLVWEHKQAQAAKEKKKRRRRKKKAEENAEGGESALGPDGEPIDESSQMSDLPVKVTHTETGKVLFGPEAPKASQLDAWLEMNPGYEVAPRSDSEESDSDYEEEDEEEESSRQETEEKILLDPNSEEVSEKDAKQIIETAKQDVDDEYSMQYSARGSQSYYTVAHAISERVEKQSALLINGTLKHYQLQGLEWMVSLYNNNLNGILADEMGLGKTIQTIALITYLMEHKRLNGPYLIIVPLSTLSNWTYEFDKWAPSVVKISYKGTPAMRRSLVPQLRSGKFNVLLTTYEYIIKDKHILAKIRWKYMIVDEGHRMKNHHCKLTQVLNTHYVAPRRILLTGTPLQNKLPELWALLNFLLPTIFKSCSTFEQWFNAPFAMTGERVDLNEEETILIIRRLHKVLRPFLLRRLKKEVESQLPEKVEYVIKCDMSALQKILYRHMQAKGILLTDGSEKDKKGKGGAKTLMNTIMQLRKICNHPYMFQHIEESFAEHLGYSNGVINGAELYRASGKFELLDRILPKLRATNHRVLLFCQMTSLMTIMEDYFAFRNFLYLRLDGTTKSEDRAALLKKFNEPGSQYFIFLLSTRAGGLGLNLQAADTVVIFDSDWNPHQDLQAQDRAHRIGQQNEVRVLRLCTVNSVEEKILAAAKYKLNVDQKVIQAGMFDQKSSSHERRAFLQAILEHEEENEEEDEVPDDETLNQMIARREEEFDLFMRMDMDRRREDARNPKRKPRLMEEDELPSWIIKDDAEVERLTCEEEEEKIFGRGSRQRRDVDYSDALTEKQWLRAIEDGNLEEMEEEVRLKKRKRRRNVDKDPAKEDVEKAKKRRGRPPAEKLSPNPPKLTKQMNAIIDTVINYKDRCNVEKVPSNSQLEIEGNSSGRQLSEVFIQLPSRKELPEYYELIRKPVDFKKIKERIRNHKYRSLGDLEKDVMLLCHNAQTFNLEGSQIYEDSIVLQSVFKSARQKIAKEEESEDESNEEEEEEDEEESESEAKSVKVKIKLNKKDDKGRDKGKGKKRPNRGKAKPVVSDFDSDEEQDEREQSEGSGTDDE

CCOc1ccc(C(=O)N/N=C/c2ccc(-c3ccc(S(=O)(=O)Nc4ncccn4)cc3)o2)cc1
IC50 [1]: 5.34 µM (active)
IC50 [2]: 23.8 µM (active)

COCCCn1c(-c2ccc(OC)cc2)cc(C(=O)NC2CCCCCCC2)c1C
IC50 [3]: 3.95 µM (active)
EC50 [4]: > 53 µM (inactive)
IC50 [5]: 11.5 µM (active)

CC(=O)NC(CC(C)C)C(=O)NC(Cc1ccccc1)C(=O)CCl (stereo not drawn) (Ac-Leu-Phe-CH2Cl; configuration not given here)
IC50 [6]: 3.63 µM (active)
IC50 [7]: 1.04 µM (active)

CCN(CC)C(=O)CSc1nnc(-c2ccccn2)n1-c1ccc(C)c(C)c1
AC50 [8]: 92.4 µM (active)

O=C(CSc1nc2ccccc2[nH]1)Nc1nc(-c2ccc(Br)cc2)cs1
IC50 [9]: 85.4 µM (inactive)
IC50 [10]: 55.6 µM (inactive)
IC50 [11]: 90.6 µM (inactive)

CCc1c(C)c2ccc(OC3CCCCC3=O)cc2oc1=O (stereo not given)
EC50 [12]: > 91.2 µM (inactive)
EC50 [13]: > 91.2 µM (inactive)

Cc1noc(C)c1COC(=O)Cc1ccc(Cl)c(Cl)c1
IC50 [3]: 33.8 µM (active)
EC50 [4]: > 53 µM (inactive)
IC50 [5]: > 20 µM (inactive)

COC(=O)c1ccc(C(=O)Nc2ccc3c(c2)C(=O)NC3=O)cc1
IC50 [14]: 6.87 µM (active)
IC50 [15]: > 66.6 µM (inactive)
IC50 [16]: 5.19 µM (active)

c1ccc(-n2nnnc2NCCc2c[nH]c3ccccc23)cc1
AC50 [17]: 9.93 µM (active)

O=C(NNc1c2ccccc2nc2ccccc12)c1ccc(Cl)cc1
IC50 [18]: > 100 µM (inactive)
IC50 [19]: 46.5 µM (inactive)

CCN1CCN(Cc2ccc(NC(=O)c3ccc(C)c(NC(=O)c4cccc5[nH]ccc45)c3)cc2C(F)(F)F)CC1
EC50 [20]: 2.79 µM (active)
IC50 [6]: 39.9 µM (inactive)
IC50 [7]: 4.72 µM (active)

O=C(Nc1ccc2oc(-c3ccncc3)nc2c1)c1ccc2c(c1)OCO2
IC50 [15]: > 66.6 µM (inactive)
IC50 [16]: 7.12 µM (active)
IC50 [21]: 7.98 µM (active)

O=C(CN1c2ccccc2Sc2ccccc21)NNC(=S)Nc1ccc(Cl)cc1Cl
IC50 [1]: 13.7 µM (active)
IC50 [2]: 52.2 µM (active)
